test system: HCV pseudoparticles (genotype 1a HCV E1 and E2 envelope, H77C isolate); assay: microbe, parasite or virus in culture; format: cell-based; settings: Hepatitis C virus, Huh-7, 48 h, HCV pseudoparticle infection of Huh7 cells, luciferase 2 days after infection; average of duplicates

| Compound | EC50 [nM] |
| --- | --- |
| COC(=O)[C@H](CCNC(=O)C(=O)N[C@@H](N)C1CC1)NC(=O)c1ccc(Nc2nc(NC3(c4ccc(Cl)cc4)CC3)nc(OCC(F)(F)F)n2)cc1 [Compound 1392] | 0.14 |

same assay, conditions: Hepatitis C virus, Huh-7, 48 h, HCV pseudoparticles (genotype 1a, H77C) in Huh7 cells; average of duplicate; luciferase 2 days after infection

| Compound | EC50 [nM] |
| --- | --- |
| COC(=O)[C@H](CNC(=O)C(=O)Nc1ccc(C2CCCCC2)cc1)NC(=O)c1ccc(Nc2nc(NC3(c4ccc(Cl)cc4)CC3)nc(OCC(F)(F)F)n2)cc1 [Compound 3079] | 1.42 |
| COC(=O)[C@H](CCNC(=O)C(=O)Nc1ccc(C)cc1)NC(=O)c1ccc(Nc2nc(NC3(c4ccc(Cl)cc4)CC3)nc(OCC(F)(F)F)n2)cc1 [Compound 3114] | 0.084 |
| O=C(NC/C(=N/C(=O)c1ccc(Nc2nc(NC3(c4ccc(Cl)cc4)CC3)nc(OCC(F)(F)F)n2)cc1)C(=O)O)C(=O)Nc1ccc(CCO)cc1 [Compound 3154] | 1.44 |

same assay, conditions: Hepatitis C virus, Huh-7, 48 h, HCV pseudoparticles, Huh7 cells, luciferase 2 days after infection; average of duplicates

| Compound | EC50 [nM] |
| --- | --- |
| CC(C)(CNC(=O)C(N)=O)CNC(=O)c1c(F)cc(Nc2nc(NC3(c4ccc(Cl)cc4)CC3)nc(OCC(F)(F)F)n2)cc1F [Compound 3812] | 0.5 |
| CC(C)(CNC(=O)C(=O)Nc1nc2ccc(Cl)cc2s1)CNC(=O)c1ccc(Nc2nc(NC3(c4ccc(Cl)cc4)CC3)nc(OCC(F)(F)F)n2)cc1 [Compound 3807] | 0.28 |

same assay, conditions: Hepatitis C virus, Huh-7, 48 h, read-out: Activity (EC50 class), HCV pseudoparticle infection of Huh7 cells, luciferase 2 days after infection; EC50 expressed as class A/B

| Compound | EC50 [nM] |
| --- | --- |
| O=C(NCC[C@H](NC(=O)c1ccc(Nc2nc(NC3(c4ccc(Cl)cc4)CC3)nc(OCC(F)(F)F)n2)cc1)C(=O)O)C(=O)NCC1OCCc2ccccc21 (some centres unmarked) [Compound 1341] | 0.01 to 10 |
| CC(C)OC(=O)c1cccc(-c2ccc(NC(=O)C(=O)NCC(C)(C)CNC(=O)c3ccc(Nc4nc(NC5(c6ccc(Cl)cc6)CC5)nc(OCC(F)(F)F)n4)cc3)cc2)c1 [Compound 1491] | 0.01 to 10 |
| COC(=O)[C@H](CCNC(=O)C(=O)N[C@H]1C[C@H]1c1ccccc1)NC(=O)c1ccc(Nc2nc(NC3(c4ccc(Cl)cc4)CC3)nc(OCC(F)(F)F)n2)cc1 [Compound 1317] | 0.01 to 10 |
| CCOC(=O)[C@H](CCCNC(=O)C(=O)NC)NC(=O)c1ccc(Nc2nc(NC3(c4ccc(Cl)cc4)CC3)nc(OCC(F)(F)F)n2)cc1 [Compound 1030, (S)-ethyl 2-(4-(4-(1-(4-chlorophenyl)cyclopropylamino)-6-(2,2,2-trifluoroethoxy)-1,3,5-triazin-2-ylamino)benzamido)-5-(2-(methylamino)-2-oxoacetamido)pentanoate] | 0.01 to 10 |
| O=C(NCC[C@H](NC(=O)c1ccc(Nc2nc(NC3(c4ccc(Cl)cc4)CC3)nc(OCC(F)(F)F)n2)cc1)C(=O)O)C(=O)NCc1cccc(F)c1 [Compound 1178] | 0.01 to 10 |
| COC(=O)[C@H](CCNC(=O)C(=O)NCc1ccc(F)cc1)NC(=O)c1ccc(Nc2nc(NC3(c4ccc(Cl)cc4)CC3)nc(OCC(F)(F)F)n2)cc1 [Compound 1145] | 0.01 to 10 |
| O=C(NCC[C@H](NC(=O)c1ccc(Nc2nc(NC3(c4ccc(Cl)cc4)CC3)nc(OCC(F)(F)F)n2)cc1)C(=O)O)C(=O)Nc1cc(F)ccc1F [Compound 1513] | 0.01 to 10 |
| COC(=O)[C@H](CCNC(=O)C(=O)NCCc1c[nH]cn1)NC(=O)c1ccc(Nc2nc(NC3(c4ccc(Cl)cc4)CC3)nc(OCC(F)(F)F)n2)cc1 [Compound 1318] | 0.01 to 10 |
| O=C(NC[C@H](NC(=O)c1ccc(Nc2nc(NC3(c4ccc(Cl)cc4)CC3)nc(OCC(F)(F)F)n2)cc1)C(=O)O)C(=O)NC1CCCCCC1 [Compound 1175] | 0.01 to 10 |
| CCC(CC)NC(=O)C(=O)NC[C@@H](NC(=O)c1ccc(Nc2nc(NC3(c4ccc(Cl)cc4)CC3)nc(OCC(F)(F)F)n2)cc1)C(=O)OC [Compound 1063] | 0.01 to 10 |
| O=C(NCCc1cccc(F)c1)C(=O)NC[C@H](NC(=O)c1ccc(Nc2nc(NC3(c4ccc(Cl)cc4)CC3)nc(OCC(F)(F)F)n2)cc1)C(=O)O [Compound 1401] | 0.01 to 10 |
| COC(=O)[C@H](CCNC(=O)C(=O)NC1CCCCCC1)NC(=O)c1ccc(Nc2nc(NC3(c4ccc(Cl)cc4)CC3)nc(OCC(F)(F)F)n2)cc1 [Compound 1141] | 0.01 to 10 |
| COC(=O)[C@H](CCNC(=O)C(=O)N[C@@H](N)C1CC1)NC(=O)c1ccc(Nc2nc(NC3(c4ccc(Cl)cc4)CC3)nc(OCC(F)(F)F)n2)cc1 [Compound 1392] | 0.01 to 10 |
| COC(=O)[C@H](CCNC(=O)C(=O)NC1CCC(C)CC1)NC(=O)c1ccc(Nc2nc(NC3(c4ccc(Cl)cc4)CC3)nc(OCC(F)(F)F)n2)cc1 (some centres unmarked) [Compound 1109] | 0.01 to 10 |
| COC(=O)[C@H](CNC(=O)C(=O)NCCn1cncn1)NC(=O)c1ccc(Nc2nc(NC3(c4ccc(Cl)cc4)CC3)nc(OCC(F)(F)F)n2)cc1 [Compound 1298] | 0.01 to 10 |
| COC(=O)[C@H](CCNC(=O)C(=O)NC1CCNC(=O)C1)NC(=O)c1ccc(Nc2nc(NC3(c4ccc(Cl)cc4)CC3)nc(OCC(F)(F)F)n2)cc1 (some centres unmarked) [Compound 1072] | 0.01 to 10 |
| O=C(NC[C@H](NC(=O)c1ccc(Nc2nc(NC3(c4ccc(Cl)cc4)CC3)nc(OCC(F)(F)F)n2)cc1)C(=O)O)C(=O)Nc1ccccc1F [Compound 1361] | 0.01 to 10 |
| O=C(NCC[C@H](NC(=O)c1ccc(Nc2nc(NC3(c4ccc(Cl)cc4)CC3)nc(OCC(F)(F)F)n2)cc1)C(=O)O)C(=O)Nc1cn[nH]c1 [Compound 1266] | 0.01 to 10 |

same assay, conditions: Hepatitis C virus, Huh-7, 48 h, read-out: Activity (EC50 class), HCV pseudoparticles, Huh7 cells, luciferase 2 days after infection; average of duplicates

| Compound | EC50 [nM] |
| --- | --- |
| Nc1ccc(NC(=O)C(=O)NCC[C@H](NC(=O)c2ccc(Nc3nc(NC4(c5ccc(Cl)cc5)CC4)nc(OCC(F)(F)F)n3)cc2)C(=O)O)cn1 [Compound 3630] | 0.01 to 10 |
| O=C(NC[C@H](NC(=O)c1ccc(Nc2nc(NC3(c4ccc(Cl)cc4)CC3)nc(OCC(F)(F)F)n2)cc1)C(=O)O)C(=O)Nc1cccc(-c2ccncc2)c1 [Compound 3768] | 0.01 to 10 |
| Cc1ccc2nc(NC(=O)C(=O)NCC(C)(C)CNC(=O)c3ccc(Nc4nc(NC5(c6ccc(Cl)cc6)CC5)nc(OCC(F)(F)F)n4)cc3)sc2c1 [Compound 3826] | 0.01 to 10 |
| Cc1ccc(NC(=O)C(=O)NCC(C)(C)CNC(=O)c2ccc(Nc3nc(NC4(c5ccc(Cl)cc5)CC4)nc(OCC(F)(F)F)n3)cc2)cc1C [Compound 3799] | 0.01 to 10 |
| COC(=O)[C@H](CNC(=O)C(=O)Nc1cccc(-c2cccnc2)c1)NC(=O)c1ccc(Nc2nc(NC3(c4ccc(Cl)cc4)CC3)nc(OCC(F)(F)F)n2)cc1 [Compound 3728] | 0.01 to 10 |
| N#Cc1cccc(NC(=O)C(=O)NC[C@H](NC(=O)c2ccc(Nc3nc(NC4(c5ccc(Cl)cc5)CC4)nc(OCC(F)(F)F)n3)cc2)C(=O)Cl)c1 [Compound 3740] | 0.01 to 10 |
| CC(=O)c1cccc(NC(=O)C(=O)NCC(C)(C)CNC(=O)c2ccc(Nc3nc(NC4(c5ccc(Cl)cc5)CC4)nc(OCC(F)(F)F)n3)cc2)c1 [Compound 3668] | 0.01 to 10 |
| COc1ccc2sc(NC(=O)C(=O)NCC(C)(C)CNC(=O)c3ccc(Nc4nc(NC5(c6ccc(Cl)cc6)CC5)nc(OCC(F)(F)F)n4)cc3)nc2c1 [Compound 3806] | 0.01 to 10 |
| CC(C)(CNC(=O)C(N)=O)CNC(=O)c1c(F)cc(Nc2nc(NC3(c4ccc(Cl)cc4)CC3)nc(OCC(F)(F)F)n2)cc1F [Compound 3812] | 0.01 to 10 |
| COc1ccc2nc(NC(=O)C(=O)NCC(C)(C)CNC(=O)c3ccc(Nc4nc(NC5(c6ccc(Cl)cc6)CC5)nc(OCC(F)(F)F)n4)cc3)sc2n1 [Compound 3803] | 0.01 to 10 |
| CC(C)(CNC(=O)C(=O)Nc1ccc(-c2cccc(F)c2)cc1)CNC(=O)c1ccc(Nc2nc(NC3(c4ccc(Cl)cc4)CC3)nc(OCC(F)(F)F)n2)cc1 [Compound 3797] | 0.01 to 10 |
| COC(=O)[C@H](CNC(=O)C(=O)Nc1ccc(OCCN2CCCCC2)nc1)NC(=O)c1ccc(Nc2nc(NC3(c4ccc(Cl)cc4)CC3)nc(OCC(F)(F)F)n2)cc1 [Compound 3736] | 0.01 to 10 |
| CC(C)(CNC(=O)C(=O)Nc1nc2c(Cl)ccc(Cl)c2s1)CNC(=O)c1ccc(Nc2nc(NC3(c4ccc(Cl)cc4)CC3)nc(OCC(F)(F)F)n2)cc1F [Compound 3681] | 0.01 to 10 |
| CC(C)(CNC(=O)C(=O)Nc1nc2ccc(Cl)cc2s1)CNC(=O)c1ccc(Nc2nc(NC3(c4ccc(Cl)cc4)CC3)nc(OCC(F)(F)F)n2)cc1 [Compound 3807] | 0.01 to 10 |

same assay, conditions: Hepatitis C virus, Huh-7, read-out: Activity (EC50 class), HCV pseudoparticles (genotype 1a, H77C) in Huh7 cells; EC50 expressed as class A/B

| Compound | EC50 [nM] |
| --- | --- |
| CNC(=O)CCc1cccc(NC(=O)C(=O)NCC(C)(C)CNC(=O)c2ccc(Nc3nc(NC4(c5ccc(Cl)cc5)CC4)nc(OCC(F)(F)F)n3)cc2)c1 [Compound 3037] | 0.01 to 10 |
| COC(=O)[C@H](CNC(=O)C(=O)Nc1ccc(C2CCCCC2)cc1)NC(=O)c1ccc(Nc2nc(NC3(c4ccc(Cl)cc4)CC3)nc(OCC(F)(F)F)n2)cc1 [Compound 3079] | 0.01 to 10 |
| CC(C)(CNC(=O)C(=O)Nc1cccnc1-c1ccccc1)CNC(=O)c1ccc(Nc2nc(NC3(c4ccc(Cl)cc4)CC3)nc(OCC(F)(F)F)n2)cc1 [Compound 3258] | 0.01 to 10 |
| CC(C)(CNC(=O)C(=O)Nc1ccccc1-n1ccnc1)CNC(=O)c1ccc(Nc2nc(NC3(c4ccc(Cl)cc4)CC3)nc(OCC(F)(F)F)n2)cc1 [Compound 3180] | 0.01 to 10 |
| COC(=O)/C(CCNC(=O)C(=O)Nc1cccc(C(C)(C)C)c1)=N\C(=O)c1ccc(Nc2nc(NC3(c4ccc(Cl)cc4)CC3)nc(OCC(F)(F)F)n2)cc1 [Compound 3586] | 0.01 to 10 |
| O=C(NCC(O)CNC(=O)c1ccc(Nc2nc(NC3(c4ccc(Cl)cc4)CC3)nc(OCC(F)(F)F)n2)cc1)C(=O)NC1CCCCC1 (centres unmarked) [Compound 3463] | 0.01 to 10 |
| Cc1ccc(NC(=O)C(=O)NCC(C)(C)CNC(=O)c2ccc(Nc3nc(NC4(c5ccc(Cl)cc5)CC4)nc(OCC(F)(F)F)n3)cc2)cc1F [Compound 3044] | 0.01 to 10 |
| Cn1nccc1NC(=O)C(=O)NCC(C)(C)CNC(=O)c1ccc(Nc2nc(NC3(c4ccc(Cl)cc4)CC3)nc(OCC(F)(F)F)n2)cc1 [Compound 3036] | 0.01 to 10 |
| N#Cc1ccc(NC(=O)C(=O)NC/C(=N/C(=O)c2ccc(Nc3nc(NC4(c5ccc(Cl)cc5)CC4)nc(OCC(F)(F)F)n3)cc2)C(=O)O)cc1 [Compound 3167] | 0.01 to 10 |
| O=C(NC/C(=N/C(=O)c1ccc(Nc2nc(NC3(c4ccc(Cl)cc4)CC3)nc(OCC(F)(F)F)n2)cc1)C(=O)O)C(=O)Nc1ccc(Oc2ccccc2)cc1 [Compound 3150] | 0.01 to 10 |
| O=C(NCC[C@H](NC(=O)c1ccc(Nc2nc(NC3(c4ccc(Cl)cc4)CC3)nc(OCC(F)(F)F)n2)cc1)C(=O)O)C(=O)Nc1ccc(-n2cccn2)cc1 [Compound 3237] | 0.01 to 10 |
| CC(C)(CNC(=O)C(=O)Nc1ccc(Cl)cc1Cl)CNC(=O)c1ccc(Nc2nc(NC3(c4ccc(Cl)cc4)CC3)nc(OCC(F)(F)F)n2)cc1 [Compound 3453] | 0.01 to 10 |
| COC(=O)[C@H](CCNC(=O)C(=O)Nc1ccc(C)cc1)NC(=O)c1ccc(Nc2nc(NC3(c4ccc(Cl)cc4)CC3)nc(OCC(F)(F)F)n2)cc1 [Compound 3114] | 0.01 to 10 |
| NC(=O)C(=O)N[C@H](CCNC(=O)c1ccc(Nc2nc(NC3(c4ccc(Cl)cc4)CC3)nc(OCC(F)(F)F)n2)cc1)C(=O)O [Compound 3491] | 10 to 1000 |
| O=C(NC/C(=N/C(=O)c1ccc(Nc2nc(NC3(c4ccc(Cl)cc4)CC3)nc(OCC(F)(F)F)n2)cc1)C(=O)O)C(=O)Nc1ccc(CCO)cc1 [Compound 3154] | 0.01 to 10 |

Source: patent publication US8916702B2 (priority 2012, dated 2014)
